Assay results taken from patent publication US20250339447A1, “19-NOR C3,3-DISUBSTITUTED C21-N-PYRAZOLYL STEROID AND METHODS OF USE THEREOF” (Sage Therapeutics, Inc., priority 2018, published 2025).

Key:
[1] = Previous clinical trials, morning versus evening administration; assay type: in vivo, human
Source text: (§1) Dose adjustments to 20-mg of Compound 1 were permitted; 20-mg of Compound 1 was anticipated to be well tolerated as it was lower than the maximum tolerated dose level.

subjects with MDD [2] = experiment: HAM-D course to Day 42 after a Compound 1 treatment cycle (source study not given); assay type: in vivo, human
Source text: Because of this, most subjects were eligible (i.e., PHQ-9 ≥10 and HAM-D ≥20 confirmed over 2 weeks) for a Compound 1 treatment cycle when needed; a 2-week period was required to establish a new MDE (DSM-5).

[3] = test system: adult patients diagnosed with MDD (MADRS total score ≥32 and HAM-D total score ≥22); experiment: Double-blind, randomized placebo-controlled Phase 3 study in Major Depressive Disorder (Example 5); assay type: in vivo, human; conditions: for overall incidence of patients who experienced AEs: 14-day treatment period and 28-day follow up, placebo 48.9%; for Fatigue incidence: placebo 2.6%; for Sedation incidence / treatment emergent AEs leading to study drug discontinuation: placebo 3.2%; for Dizziness incidence: placebo 3.7%; for Somnolence incidence: placebo 4.2%; for Nausea incidence: placebo 4.7%; for Diarrhea incidence: placebo 5.3%; for Headache incidence: treatment and 28-day follow up, placebo 7.4%
Procedure: Compound 1 was evaluated in a double-blind, randomized placebo-controlled Phase 3 study in Major Depressive Disorder (MDD). The evaluated the efficacy, safety and pharmacokinetics of Compound 1 in adult patients diagnosed with MDD (MADRS total score ≥32 and a HAM-D total score ≥22).
Compound 1 was administered to a patient, either in 20 mg daily doses once a day for 14 days or 30 mg once a day for 14 days.
Post-hoc analyses were conducted to evaluate the effects of performance factors of Compound 1 in the primary analysis, in patients with measurable drug concentrations, in patients with HAM-D≥24, and in patients with measurable drug concentrations and HAM-D≥24, and including the primary outcome at Day 15 (FIG. 11).

[4] = test system: female subjects diagnosed with severe postpartum depression; experiment: Placebo-controlled study of Compound 1 capsules in severe postpartum depression (Example 1); assay type: in vivo, human
Procedure: Compound 1 was investigated for use in subjects with depression. Female subjects (18-65 years old) diagnosed with severe postpartum depression (PDD) with a HAM-D total score of greater than or equal to 26 at screening and Day 1 were used in the investigation. The subjects were dosed once per day with capsules containing 30 mg of Compound 1. The dose could be adjusted to capsules containing 20 mg of Compound 1 if the 30 mg dose was not tolerated. Subjects not dosed with Compound 1 were dosed with a placebo. In total, 78 subjects were treated with Compound 1 at 30 mg and 73 subjects were treated with placebo.
Assuming a 2-sided test at an alpha level of 0.05, a sample size of approximately 65 evaluable subjects per treatment group provided 90% power to detect a placebo-adjusted treatment difference of approximately 4 points in the primary endpoint, change from baseline in HAM-D total score at Day 15 assuming standard deviation (SD) of 7 points. The change from baseline in the HAM-D total score was analyzed using a mixed effects model for repeated measures (MMRM). The model included the change from baseline at each visit as the dependent variable. The main comparison was (difference in least mean square [LSMEAN]) between Compound 1 Capsules and placebo at the 15-day timepoint.
For Model-based point estimates (i.e., LSMEAN, 95% confidence intervals, and p-values), an unstructured covariance structure was used to model the within-subject errors. If there was a convergence issue with the unstructured covariance model, Toeplitz, compound symmetry or Autoregressive (1) (AR[1]) covariance structure was used, following this sequence until convergence was achieved. […] When the covariance structure was not UN, the sandwich estimator for the variance-covariance matrix was derived, using the EMPIRICAL option in the PROC MIXED statement in SAS.
Similarly, an MMRM was used for the analysis of the following variables: changes from baseline in MADRS total score and HAM-A total score, and select individual item and subscale scores. For each model, the comparison of interest was between Compound 1 Capsules and matching placebo at the 15-day time point. Model-based point estimates (i.e., LS means), 95% confidence intervals, and p-values were reported.

[5] = test system: synaptic and extrasynaptic GABAA receptors; experiment: Modulation of GABAA receptors; conditions: stated in background
subjects with MDD [6] = experiment: Phase 2 study in subjects with MDD (dose justification); assay type: in vivo, human; conditions: 30 mg per day
Source text: as §1

[7] = Day 42, among subjects achieving remission or response at Day 15

C[C@@]1(O)CC[C@H]2[C@H](CC[C@@H]3[C@@H]2CC[C@]2(C)[C@@H](C(=O)Cn4cc(C#N)cn4)CC[C@@H]32)C1 [Compound 1]
adverse effect observed ([1]; administered in the morning): sedation/somnolence
tolerability ([1]; given in the evening): improved tolerability
subjects achieving remission or response (subjects with MDD [2]; Day 15): 78.6%
subjects with HAM-D score of 16 to 21 (subjects with MDD [2]; [7]): 18.2%
subjects with HAM-D ≥22 (subjects with MDD [2]; [7]): 6.1%
tolerability in the trial ([3]; 20 mg and 30 mg): generally well tolerated
separation from placebo ([3]; 20 mg once a day for 14 days): did not separate from placebo
overall incidence of patients who experienced AEs ([3]; 20 mg): 50.0%
patients reporting SAEs during follow-up ([3]; 20 mg, complications of cocaine ingestion, Day 39): one
Fatigue incidence ([3]; 20 mg): 1.6%
Sedation incidence ([3]; 20 mg): 5.9%
treatment emergent AEs leading to study drug discontinuation ([3]; 20 mg): 1.6%
Dizziness incidence ([3]; 20 mg): 7.4%
Somnolence incidence ([3]; 20 mg): 5.9%
Nausea incidence ([3]; 20 mg): 5.3%
Diarrhea incidence ([3]; 20 mg): 5.9%
Headache incidence ([3]; 20 mg): 11.2%
HAM-D total score, LS Mean Difference from placebo ([3]; 30 mg (n=166) vs placebo (n=157), Day 3, p=0.016): −1.6
reduction in depressive symptoms in the HAM-D total score ([3]; 30 mg once a day for 14 days, Day 15 (primary endpoint), placebo 11.2): 12.6
HAM-D total score, LS Mean Difference, post-hoc ([3]; 30 mg vs placebo, Day 15, patients with HAM-D≥24, p=0.032): −2.3
HAM-D total score, LS Mean Difference from placebo ([3]; 30 mg, Day 8, p=0.008): −2.1
HAM-D total score, LS Mean Difference from placebo ([3]; 30 mg, Day 12, p=0.018): −2.1
HAM-D total score, LS Mean Difference from placebo ([3]; 30 mg, Day 15, p=0.115): −1.4
change from baseline in HAM-D total score, post-hoc ([3]; 30 mg, Day 15, patients with HAM-D≥24 (n=124), placebo −11.4): −13.7
change from baseline in HAM-D total score, post-hoc ([3]; 30 mg, Day 15, patients with measurable drug concentrations (n=151), placebo −11.2): −13.0
change from baseline in HAM-D total score, post-hoc ([3]; 30 mg, Day 15, patients with measurable drug concentrations and HAM-D≥24 (n=115), placebo −11.4): −14.0
HAM-D total score, LS Mean Difference from placebo ([3]; 30 mg, Day 42, p=0.807): −0.5
change from baseline in HAM-D total score ([3]; 30 mg, Day 42, placebo −11.7): −11.9
overall incidence of patients who experienced AEs ([3]; 30 mg): 54.2%
Fatigue incidence ([3]; 30 mg): 6.8%
Sedation incidence ([3]; 30 mg): 4.7%
treatment emergent AEs leading to study drug discontinuation ([3]; 30 mg): 2.1%
Dizziness incidence ([3]; 30 mg): 5.7%
Somnolence incidence ([3]; 30 mg): 6.8%
Nausea incidence ([3]; 30 mg): 3.6%
Diarrhea incidence ([3]; 30 mg): 6.3%
patients with serious adverse events (SAEs) during treatment ([3]; 30 mg, suicide attempt Day 5, bile duct stone after Day 2): Two
patients reporting SAEs during follow-up ([3]; 30 mg, syncope and associated injuries, Day 28): one
Headache incidence ([3]; 30 mg): 6.3%
AEs of loss of consciousness ([3]; all groups): no AEs of loss of consciousness
suicidal ideation or behavior by Columbia Suicide Severity Rating Scale (C-SSRS) ([3]; compared to baseline): no signal for increased suicidal ideation or suicidal behavior
depressive symptoms in long-term follow-up ([3]; patients who completed long-term follow-up up to 6 months, preliminary data): maintenance of improvement in depressive symptoms
overall efficacy conclusion ([4]; 30 mg once a day for 15 days, compared to placebo): effective at treating postpartum depression
mean decrease from baseline in HAM-D total score ([4]; 30 mg once daily, Day 15, mean baseline 28.4 (2.09), placebo −13.6 (8.31)): −18.0 (8.36)
model-based between treatment group difference in HAM-D total score change (95% CI) ([4]; 30 mg vs placebo, Day 15, MMRM, p 0.0029): −4.2 (−6.9, −1.5)
model-based between treatment group difference in HAM-A total score change (95% CI) ([4]; 30 mg vs placebo, Day 15, p 0.0063): −3.90 (−6.7, −1.1)
model-based between treatment group difference in MADRS total score change (95% CI) ([4]; 30 mg vs placebo, Day 15, p=0.0182): −4.6 (−8.3, −0.8)
CGI-I response, model-based odds ratio (95% CI) ([4]; 30 mg vs placebo, Day 15, p=0.0280): 2.15 (1.09, 4.27)
HAM-D response, model-based odds ratio (95% CI) ([4]; 30 mg vs placebo, p=0.0050): 2.63 (1.34, 5.16)
HAM-D remission, model-based odds ratio (95% CI) ([4]; 30 mg vs placebo, p=0.0122): 2.50 (1.22, 5.11)
CGI-I response rate ([4]; 30 mg, Day 15, 53/74 subjects, placebo 38/73 (52.1%)): 71.6%
mean decrease from baseline in MADRS total score ([4]; 30 mg, Day 15, baseline 34.9 (4.41), placebo −17.7 (11.72)): −22.0 (11.64)
mean decrease from baseline in HAM-A total score ([4]; 30 mg, Day 15, mean baseline 26.1 (5.88), placebo −12.9 (8.57)): −16.5 (9.51)
HAM-D remission rate ([4]; 30 mg, 33/74 subjects, placebo 17/73 (23.3%)): 44.6%
HAM-D response rate ([4]; 30 mg, 53/74 subjects, placebo 35/73 (47.9%)): 71.6%
mode of action at GABAA receptors [5]: positive allosteric modulator
efficacy and tolerability of the dose level (subjects with MDD [6]): efficacious and well-tolerated
